# Literature values, collected in publication PMC7765930, “Antiproliferative Phenanthrenes from Juncus tenuis: Isolation and Diversity-Oriented Semisynthetic Modification” (Molecules, 2020).
# Key:
# [1] = system: HL-60 cell line; set-up: method as in PMID 22976333; conditions: read-out: IC50, cytotoxicity against HL-60; cited from earlier work
# [2] = system: PC-3 cells; set-up: method as in PMID 19193043; conditions: read-out: IC50, growth inhibition PC-3; cited from earlier work
# [3] = system: A549 cells; set-up: method as in PMID 19193043; conditions: read-out: IC50, growth inhibition A549; cited from earlier work
# [4] = system: MCF-7 cells; set-up: method as in PMID 19193043; conditions: read-out: IC50, growth inhibition MCF-7; cited from earlier work
# [5] = system: vincristine resistant KBVIN cells; set-up: method as in PMID 19193043; conditions: read-out: IC50, growth inhibition KBVIN; cited from earlier work
# [6] = system: DU145 cells; set-up: method as in PMID 19193043; conditions: read-out: IC50, growth inhibition DU145; cited from earlier work
# [7] = system: KB cells; set-up: method as in PMID 19193043; conditions: read-out: IC50, growth inhibition KB; cited from earlier work
# [8] = system: HCT-8 cells; set-up: method as in PMID 19193043; conditions: read-out: IC50, growth inhibition HCT-8; cited from earlier work
SMILES,IC50 [1] [µM],IC50 [2] [nM],IC50 [3] [nM],IC50 [4] [nM],IC50 [5] [nM],IC50 [6] [nM],IC50 [7] [nM],IC50 [8] [nM]
"COC1=C(OC)C(=O)c2c(ccc3cccc(O)c23)C1=O [5-hydroxy-2,3-dimethoxy-1,4-phenanthrenequinone]",4.7,,,,,,,
COC1=CC(=O)c2ccc3cc(OC)c(OC)c(O)c3c2C1=O [calanquinone A],,510,610,100,1430,1080,1020,640
